# Results from ChEMBL document CHEMBL5131548, “Novel Bis-phosphoglycerate Mutase Modulators for Treating Sickle Cell Disease” (ACS Med Chem Lett, 2022).
# Biological target: T1, Bisphosphoglycerate mutase (Homo sapiens, UniProt P07738)
# T1 sequence (P07738 whole entry): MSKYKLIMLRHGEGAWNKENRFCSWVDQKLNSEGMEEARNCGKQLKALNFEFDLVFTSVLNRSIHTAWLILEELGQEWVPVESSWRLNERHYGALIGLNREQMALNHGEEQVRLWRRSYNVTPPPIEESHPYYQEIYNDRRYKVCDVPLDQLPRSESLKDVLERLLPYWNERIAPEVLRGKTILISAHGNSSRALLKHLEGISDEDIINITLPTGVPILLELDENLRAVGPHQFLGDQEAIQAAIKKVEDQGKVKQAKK
# Test: Inhibition of human Bis-phosphoglycerate mutase using 3-PG, GAP and NAD as substrate preincubated for 30 mins followed by substrate addition and measured after 100 mins in presence of GAPDH by resazurin reagent based fluorescence analysis
row,IC50,SMILES
1,138 nM,Cc1nc(COc2ncccn2)sc1-c1cccc(-c2ccc(-c3noc(=O)[nH]3)cc2)n1
2,159 nM,Cc1nc(COc2ncccn2)sc1-c1csc(-c2cc(F)c(O)c(F)c2F)n1
3,92 nM,Cc1nc(COc2cccnn2)sc1-c1csc(-c2cc(F)c3[nH]nnc3c2)n1
4,19 nM,Cc1nc(COCC(C)(C)O)sc1-c1cccc(-c2cc(F)c3nn[nH]c3c2F)n1
5,21 nM,Cc1cnc(OCc2nc(C)c(-c3cccc(-c4cc(F)c5nn[nH]c5c4F)n3)s2)nc1
